In a compilation of properties of binary mixtures (doi:10.1016/j.molliq.2019.111099):

Assay: xn = mol fraction of the nth substance listed
Conditions: 101 kPa

Cc1n(S(=O)(=O)O)cc[n+]1S(=O)(=O)O.O=C([O-])C(F)(F)F + CO
Conditions	electrical conductivity [S/m]
283.15 K, x1 = 0.0255	4
288.15 K, x1 = 0.0255	3.64
298.15 K, x1 = 0.0052	1.38
298.15 K, x1 = 0.0155	2
298.15 K, x1 = 0.0205	2.41
298.15 K, x1 = 0.0255	3.29
298.15 K, x1 = 0.05	4.44
298.15 K, x1 = 0.08	4.49
298.15 K, x1 = 0.1	4.52
298.15 K, x1 = 0.12	4.03
298.15 K, x1 = 0.15	3.28
298.15 K, x1 = 0.18	2.42
298.15 K, x1 = 0.2	1.71
303.15 K, x1 = 0.0255	3.01
308.15 K, x1 = 0.0255	2.98
313.15 K, x1 = 0.0255	2.86
318.15 K, x1 = 0.0255	2.84
323.15 K, x1 = 0.0255	2.73
333.15 K, x1 = 0.0255	2.32

CCc1n(S(=O)(=O)O)cc[n+]1S(=O)(=O)O.O=C([O-])C(F)(F)F + CO
Conditions	electrical conductivity [S/m]
278.15 K, x1 = 0.0255	3.75
288.15 K, x1 = 0.0255	3.44
298.15 K, x1 = 0.0104	1.64
298.15 K, x1 = 0.0155	1.93
298.15 K, x1 = 0.0205	2.27
303.15 K, x1 = 0.0255	3.03
308.15 K, x1 = 0.0255	2.95
318.15 K, x1 = 0.0255	2.51
323.15 K, x1 = 0.0255	2.36
328.15 K, x1 = 0.0255	2.19
333.15 K, x1 = 0.0255	1.96

O=C([O-])C(F)(F)F.O=S(=O)(O)n1cc[n+](S(=O)(=O)O)c1 + CO
Conditions	electrical conductivity [S/m]
278.15 K, x1 = 0.0255	5.19
283.15 K, x1 = 0.0255	4.9
293.15 K, x1 = 0.0255	4.26
298.15 K, x1 = 0.0104	2.23
298.15 K, x1 = 0.0155	2.85
298.15 K, x1 = 0.0205	3.56
298.15 K, x1 = 0.0255	4.13
298.15 K, x1 = 0.05	5.45
303.15 K, x1 = 0.0255	4.05
318.15 K, x1 = 0.0255	3.52
323.15 K, x1 = 0.0255	3.46
328.15 K, x1 = 0.0255	3.37

CCCCc1n(S(=O)(=O)O)cc[n+]1S(=O)(=O)O.O=C([O-])C(F)(F)F + CO
Conditions	electrical conductivity [S/m]
278.15 K, x1 = 0.0255	3.18
283.15 K, x1 = 0.0255	3.01
288.15 K, x1 = 0.0255	2.89
293.15 K, x1 = 0.0255	2.72
298.15 K, x1 = 0.0052	1.41
298.15 K, x1 = 0.0155	1.76
298.15 K, x1 = 0.0255	2.65
303.15 K, x1 = 0.0255	2.45
313.15 K, x1 = 0.0255	2.08
318.15 K, x1 = 0.0255	1.91
323.15 K, x1 = 0.0255	1.73
328.15 K, x1 = 0.0255	1.69
333.15 K, x1 = 0.0255	1.57
